The target in series [1] is T1, Norepinephrine (NE) uptake into rat brain synaptosome (hippocampus) (Rattus norvegicus, UniProt Q63380).
T1 construct: used as crude synaptosome fraction; from tissue; host or cells: rat (male Wistar) hippocampus, crude synaptosome fraction
In words: Inhibitory activity on norepinephrine (NE) uptake into rat brain synaptosome. It counts as biochemical. The following applies: tritium-labeled NE 12 nM uptake, 10 min at 37° C., read-out: 50% inhibitory concentration. Here is the method: Pharmacological Test 2 Evaluation of Inhibitory Activity of Test Compound on Norepinephrine (NE) Uptake into Rat Brain Synaptosome
(§1) Male Wistar rats were decapitated and the brains were removed and the hippocampi were dissected. The separated hippocampi were homogenized in 20 volumes as weight of 0.32 M sucrose solution by a Potter-type homogenizer. The homogenate was centrifuged at 1000 g at 4° C. for 10 minutes, and the supernatant was then centrifuged at 20000 g at 4° C. for 20 minutes. The pellet was resuspended in incubation buffer (20 mM HEPES buffer (pH 7.4)) containing 10 mM glucose, 145 mM sodium chloride, 4.5 mM potassium chloride, 1.2 mM magnesium chloride, and 1.5 mM calcium chloride) and used as crude synaptosome fraction.
The uptake reaction mixture was suspended in final volume of 200 μl containing pargyline (final concentration of 10 μM) and sodium ascorbate (final concentration of 0.2 mg/ml) in each well of 96-well-round-bottom-plate.
Solvent, unlabeled NE, and serial diluted test compounds were added to each well, and synaptosome fraction of 1/10 volume of the final volume were added. After 10 minutes preincubation at 37° C., the uptake was initiated by the addition of tritium-labeled NE solution (final concentration of 12 nM) at 37° C. The uptake was stopped after 10 minutes by filtration under vacuum through a 96-well glass fiber filter plate. After washing the filter with cold physiological saline and drying up, Microscint-0 (Perkin-Elmer) was added, and remained radioactivity on the filter was measured.
The total uptake activity with only solvent was determined as 100%, and the nonspecific uptake activity with unlabeled NE (final concentration of 10 μM) was determined as 0%. The 50% inhibitory concentrations were calculated based on the concentrations of the test compounds and their inhibitory activities.

The target in series [2] is T2, Dopamine (DA) uptake into rat brain synaptosome (striatum) (Rattus norvegicus, UniProt P23977).
T2 construct: used as crude synaptosome fraction; from tissue; host or cells: rat (male Wistar) striatum, crude synaptosome fraction
T2 sequence (P23977 whole entry): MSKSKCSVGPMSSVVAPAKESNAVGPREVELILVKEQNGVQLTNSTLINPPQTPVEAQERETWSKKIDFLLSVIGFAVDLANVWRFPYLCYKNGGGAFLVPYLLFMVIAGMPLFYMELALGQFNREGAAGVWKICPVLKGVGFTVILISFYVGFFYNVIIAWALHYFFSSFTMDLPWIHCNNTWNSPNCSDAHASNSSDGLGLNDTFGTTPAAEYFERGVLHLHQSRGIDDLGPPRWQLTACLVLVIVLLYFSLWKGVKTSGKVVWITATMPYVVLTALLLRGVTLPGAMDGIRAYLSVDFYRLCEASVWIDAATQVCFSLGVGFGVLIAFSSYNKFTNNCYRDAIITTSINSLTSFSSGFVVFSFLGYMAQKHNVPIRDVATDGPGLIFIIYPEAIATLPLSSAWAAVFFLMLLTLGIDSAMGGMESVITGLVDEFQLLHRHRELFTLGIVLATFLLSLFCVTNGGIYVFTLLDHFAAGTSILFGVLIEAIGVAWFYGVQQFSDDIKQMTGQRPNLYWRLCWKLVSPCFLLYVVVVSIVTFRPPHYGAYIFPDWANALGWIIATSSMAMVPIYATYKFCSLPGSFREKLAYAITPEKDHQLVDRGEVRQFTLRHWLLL
In words: Inhibitory activity on dopamine (DA) uptake into rat brain synaptosome. Format: biochemical. To be noted: tritium labeled DA 2 nM uptake, 10 min at 37° C., read-out: 50% inhibitory concentration. Here is the method:
Pharmacological Test 3 Evaluation of Inhibitory Activity of Test Compound on Dopamine (DA) into Rat Brain Synaptosome
as §1, with “striata” for “hippocampi”
(§2) The uptake reaction mixture was suspended in a final volume of 200 μl containing pargyline (final concentration of 10 μM) and sodium ascorbate (final concentration of 0.2 mg/ml) in each well of 96-well-round-bottom-plate.
Solvent, unlabeled DA, and serial diluted test compounds were added in each well, and synaptosome fraction of 1/10 volume of the final volume were added. After 10-min preincubation at 37° C., the uptake was initiated by the addition of tritium labeled DA solution (final concentration of 2 nM) at 37° C. The uptake was stopped after 10 minutes by filtration under vacuum through a 96-well glass fiber filter plate. After washing the filter with cold physiological saline and drying up, Microscint-0 (Perkin-Elmer) was added and remained radioactivity on the filter was measured.
The uptake activity with only solvent was determined as 100%, and the nonspecific uptake activity with unlabeled DA (final concentration of 10 μM) was determined as 0%. The 50% inhibitory concentrations were calculated based on the concentrations of the test compounds and their inhibitory activities.

Series [3] addresses T3, Serotonin (5-HT) uptake into rat brain synaptosome (frontal cortex) (Rattus norvegicus, UniProt P31652).
T3 construct: used as crude synaptosome fractions; from tissue; host or cells: rat (male Wistar) frontal cortex, crude synaptosome fraction
In words: Inhibitory activity on serotonin (5-HT) uptake into rat brain synaptosome. It counts as biochemical. The following applies: tritium-labeled 5-HT 8 nM uptake, 10 min at 37° C., read-out: 50% inhibittory concentration. Here is the method: Pharmacological Test 1 Evaluation of Inhibitory Activity of Test Compound on Serotonin (5-HT) Uptake into Rat Brain Synaptosome
as §1, with “frontal cortices” for “hippocampi”, “fractions.” for “fraction.”
as §2
Solvent, unlabeled 5-HT, and serial diluted test compounds were added in each well, and synaptosome fraction of 1/10 volume of the final volume were added. After a 10 min preincubation at 37° C., the uptake was initiated by the addition of tritium-labeled 5-HT solution (final concentration of 8 nM) at 37° C. The uptake was stopped after 10 minutes by filtration under vacuum through a 96-well glass fiber filter plate. After washing the filter with cold physiological saline and drying up, Microscint-O (Perkin-Elmer) was added, and remained radioactivity on the filter was measured.
The total uptake activity with only solvent was determined as 100%, and the nonspecific uptake activity with unlabeled 5-HT (final concentration of 10 μM) was determined as 0%. The 50% inhibitory concentrations were calculated based on the concentrations of the test compounds and their inhibitory activities.

Structures can show the parent of a compound that is named as a salt.

The text below walks through data of patent US10000450B2, “N,N-substituted 3-aminopyrrolidine compounds useful as monoamines reuptake inhibitors” (OTSUKA PHARMACEUTICAL CO., LTD., priority 2005, dated 2018).

T3 sequence (P31652 whole entry): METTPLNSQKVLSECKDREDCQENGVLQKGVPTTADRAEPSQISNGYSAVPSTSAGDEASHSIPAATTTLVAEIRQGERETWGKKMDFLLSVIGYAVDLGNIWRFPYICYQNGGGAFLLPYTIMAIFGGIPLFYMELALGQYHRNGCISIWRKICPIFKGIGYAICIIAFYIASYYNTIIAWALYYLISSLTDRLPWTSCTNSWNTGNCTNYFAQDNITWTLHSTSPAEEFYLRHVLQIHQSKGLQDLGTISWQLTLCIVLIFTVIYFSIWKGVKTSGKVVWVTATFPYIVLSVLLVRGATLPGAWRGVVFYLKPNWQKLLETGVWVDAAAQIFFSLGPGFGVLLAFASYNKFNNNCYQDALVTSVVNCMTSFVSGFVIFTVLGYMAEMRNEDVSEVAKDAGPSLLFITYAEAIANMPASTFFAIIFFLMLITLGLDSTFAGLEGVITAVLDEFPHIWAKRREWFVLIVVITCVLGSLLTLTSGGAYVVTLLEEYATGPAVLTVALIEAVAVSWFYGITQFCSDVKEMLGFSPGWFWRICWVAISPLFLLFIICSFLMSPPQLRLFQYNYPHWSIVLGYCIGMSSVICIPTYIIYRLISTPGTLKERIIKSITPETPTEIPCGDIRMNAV
T1 sequence (Q63380 1-617): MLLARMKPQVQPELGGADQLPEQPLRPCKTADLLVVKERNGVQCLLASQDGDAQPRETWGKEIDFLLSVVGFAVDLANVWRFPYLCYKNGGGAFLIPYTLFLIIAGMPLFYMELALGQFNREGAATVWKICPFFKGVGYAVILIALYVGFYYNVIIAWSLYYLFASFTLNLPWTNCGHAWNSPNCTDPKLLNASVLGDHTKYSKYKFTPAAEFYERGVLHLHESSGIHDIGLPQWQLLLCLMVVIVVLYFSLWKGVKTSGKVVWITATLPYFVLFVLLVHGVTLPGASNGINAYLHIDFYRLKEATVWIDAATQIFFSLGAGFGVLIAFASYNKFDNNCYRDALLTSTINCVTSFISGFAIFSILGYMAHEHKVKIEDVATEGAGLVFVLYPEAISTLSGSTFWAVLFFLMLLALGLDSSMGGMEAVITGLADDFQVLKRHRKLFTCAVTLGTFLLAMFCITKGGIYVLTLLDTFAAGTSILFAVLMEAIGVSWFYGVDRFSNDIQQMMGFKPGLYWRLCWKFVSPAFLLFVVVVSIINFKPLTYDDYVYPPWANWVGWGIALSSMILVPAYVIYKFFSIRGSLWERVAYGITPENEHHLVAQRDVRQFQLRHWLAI

`CCN1CCN(c2ccc(N(c3ccc(F)c(Cl)c3)[C@H]3CCNC3)nc2)CC1` (as salt: hydrochloride) [Example 201]: the melting point – broadly, the temperature of the solid-liquid transition – fell in the range of 208 to 211 °C.
In turn, `Fc1ccc(N(c2ccccc2)[C@H]2CCNC2)cc1` (as salt: fumarate) [Example 20] displayed a melting point of 143 to 145 °C.
Consider `N#Cc1ccc(N(c2ccc(F)c(Cl)c2)[C@H]2CCNC2)cc1` (as salt: fumarate) [Example 73], for which the melting point is 174 to 175 °C.
Same read-out and setting: the same measure for `Fc1ccc(N(c2ccc(Cl)nc2)[C@H]2CCNC2)cc1Cl` (as salt: fumarate) [Example 244]: 136 to 137 °C; for `c1ccc(N(c2ccc3sccc3n2)[C@H]2CCNC2)cc1` (as salt: hydrochloride) [Example 934]: 241.5 to 243.5 °C.
Compound `Fc1cccc(N(c2ccc(C(F)(F)F)cc2)[C@H]2CCNC2)c1.O=C(O)/C=C/C(=O)O.O=C(O)/C=C/C(=O)O` yielded a melting point of 144 to 146.2 °C.
Regarding `Clc1ccc(N(c2ccccn2)[C@H]2CCNC2)cc1Cl` (as salt: hydrochloride) [Example 188], the melting point was in the range of 135 to 138 °C.
Compound `Fc1ccc(N(c2ccccn2)[C@H]2CCNC2)cc1Cl` (as salt: fumarate) [Example 154] had a melting point of 152.4 to 154.4 °C.
Compound `c1ccc(N(c2ccc3sccc3c2)[C@H]2CCNC2)cc1` (as salt: hydrochloride) [Example 116] returned a melting point of 158 to 160 °C.
Compound `Fc1ccc(N(c2ccc3ccsc3c2)[C@H]2CCNC2)cc1` (as salt: fumarate) [Example 114] registered a melting point of 131.6 to 133.3 °C.
For the compound `Clc1ccc(N(c2cnccn2)[C@H]2CCNC2)cc1Cl` (as salt: hydrochloride) [Example 963], the melting point was 120 to 124 °C.
Consider `Clc1ccc(N(c2cccnc2)[C@H]2CCNC2)cc1Cl` (as salt: hydrochloride) [Example 242], for which the melting point fell in the range of 108 to 110 °C.
Turning to `Fc1ccc(N(c2ccccn2)[C@H]2CCNC2)cc1Cl` [Example 154], the values for the IC50 in series [1], in series [2] and in series [3] were 0.2 nM, 9.2 nM and 0.8 nM, respectively.
As to `Fc1ccc(N(c2ccc(Cl)c(Cl)c2)[C@H]2CCNC2)nc1` [Example 961], the results for the IC50 in series [1], in series [2] and in series [3] were 0.7 nM, 9.6 nM and 2.8 nM, respectively.
Compound `Fc1ccc(N(c2ccc(Cl)c(Cl)c2)[C@H]2CCNC2)nc1` (as salt: hydrochloride) [Example 961] gave a melting point of 96 to 98 °C.
Same read-out and setting: the same measure for `Fc1ccc(N(c2ccsc2)[C@H]2CCNC2)cc1Cl` (as salt: fumarate) [Example 278]: 135 to 136 °C.
On the same count and under the same terms, the same measure for `Clc1ccc(N(c2ccncc2)[C@H]2CCNC2)cc1Cl` (as salt: salt) [Example 273]: 229 to 231 °C.
In the case of `Fc1ccc(N(c2ccsc2)[C@H]2CCNC2)cc1Cl` [Example 278], the IC50 came out at 0.3 nM in series [1], 34.7 nM in series [2] and 2.2 nM in series [3].
Regarding `Cc1cc(N(c2cncc(F)c2)[C@H]2CCNC2)ccc1F` [Example 895], the IC50 in series [1] was determined as 0.5 nM; in series [2] it was 38 nM; in series [3] it was 3 nM.
For `Fc1ccc(N(c2ccc3cnsc3c2)[C@H]2CCNC2)cc1Cl` [Example 930], the IC50 in series [1] was 1 nM; in series [2] it was 6.8 nM; in series [3], 0.8 nM.
For `Fc1ccc(N(c2ccc3ccsc3c2)[C@H]2CCNC2)cc1` [Example 114] the same measures were 0.4 nM, 32.5 nM and 0.8 nM.
On to `CC(C)(O)CN(c1ccc(F)c(Cl)c1)[C@H]1CCNC1` [Example 967], for which the values for the IC50 in series [1], in series [2] and in series [3] were 0.1 nM, 25.4 nM and 0.9 nM, respectively.
For `Fc1cncc(N(c2ccc(F)c(Cl)c2)[C@H]2CCNC2)c1` [Example 894] the same measures were 0.3 nM, 9.4 nM and 2.6 nM.
